Each compound was assayed on CCRF-CEM (assay: Antiproliferative activity against human CCRF-CEM cells assessed as growth inhibition at 10 uM measured after 48 hrs by NCI protocol based SRB assay relative to control). Settings: read-out: GI.
Type: functional

SMILES | inhibition of growth at 10 µM
N#Cc1c(-c2ccccc2)nc2c(c(-c3ccccc3)nn2-c2ccccc2)c1-c1ccc(O)cc1 | 78%

The compounds below were run on HOP-62 (assay: Antiproliferative activity against human HOP-62 cells assessed as growth inhibition at 10 uM measured after 48 hrs by NCI protocol based SRB assay relative to control). Settings: read-out: GI.
Type: functional

SMILES | inhibition of growth at 10 µM
N#Cc1c(-c2ccccc2)nc2c(c(-c3ccccc3)nn2-c2ccccc2)c1-c1ccc(O)cc1 | 75%

The compounds below were run on NCI-H226 (assay: Antiproliferative activity against human NCI-H226 cells assessed as growth inhibition at 10 uM measured after 48 hrs by NCI protocol based SRB assay relative to control). Settings: read-out: GI.
Type: functional

SMILES | inhibition of growth at 10 µM
N#Cc1c(-c2ccccc2)nc2c(c(-c3ccccc3)nn2-c2ccccc2)c1-c1ccc(O)cc1 | 46%

These compounds were tested on HCT-116 (assay: Antiproliferative activity against human HCT-116 cells assessed as growth inhibition at 10 uM measured after 48 hrs by NCI protocol based SRB assay relative to control). Settings: read-out: GI.
Type: functional

SMILES | inhibition of growth at 10 µM
N#Cc1c(-c2ccccc2)nc2c(c(-c3ccccc3)nn2-c2ccccc2)c1-c1ccc(O)cc1 | 66%

What follows are compounds tested on COLO 205 (assay: Antiproliferative activity against human COLO 205 cells assessed as growth inhibition at 10 uM measured after 48 hrs by NCI protocol based SRB assay relative to control). Settings: read-out: GI.
Type: functional

SMILES | inhibition of growth at 10 µM
N#Cc1c(-c2ccccc2)nc2c(c(-c3ccccc3)nn2-c2ccccc2)c1-c1ccc(O)cc1 | 59%

These compounds were tested on KM12 (assay: Antiproliferative activity against human KM12 cells assessed as growth inhibition at 10 uM measured after 48 hrs by NCI protocol based SRB assay relative to control). Settings: read-out: GI.
Type: functional

SMILES | inhibition of growth at 10 µM
N#Cc1c(-c2ccccc2)nc2c(c(-c3ccccc3)nn2-c2ccccc2)c1-c1ccc(O)cc1 | 53%

Each compound was assayed on HCC 2998 (assay: Antiproliferative activity against human HCC 2998 cells assessed as growth inhibition at 10 uM measured after 48 hrs by NCI protocol based SRB assay relative to control). Settings: read-out: GI.
Type: functional

SMILES | inhibition of growth at 10 µM
N#Cc1c(-c2ccccc2)nc2c(c(-c3ccccc3)nn2-c2ccccc2)c1-c1ccc(O)cc1 | 28%

The compounds below were run on HT-29 (assay: Antiproliferative activity against human HT-29 cells assessed as growth inhibition at 10 uM measured after 48 hrs by NCI protocol based SRB assay relative to control). Settings: read-out: GI.
Type: functional

SMILES | inhibition of growth at 10 µM
N#Cc1c(-c2ccccc2)nc2c(c(-c3ccccc3)nn2-c2ccccc2)c1-c1ccc(O)cc1 | 16%

The compounds below were run on SF-539 (assay: Antiproliferative activity against human SF-539 cells assessed as growth inhibition at 10 uM measured after 48 hrs by NCI protocol based SRB assay relative to control). Settings: read-out: GI.
Type: functional

SMILES | inhibition of growth at 10 µM
N#Cc1c(-c2ccccc2)nc2c(c(-c3ccccc3)nn2-c2ccccc2)c1-c1ccc(O)cc1 | 77%

These compounds were tested on SF-295 (assay: Antiproliferative activity against human SF-295 cells assessed as growth inhibition at 10 uM measured after 48 hrs by NCI protocol based SRB assay relative to control). Settings: read-out: GI.
Type: functional

SMILES | inhibition of growth at 10 µM
N#Cc1c(-c2ccccc2)nc2c(c(-c3ccccc3)nn2-c2ccccc2)c1-c1ccc(O)cc1 | 143%

Each compound was assayed on MDA-MB-435 (assay: Antiproliferative activity against human MDA-MB-435 cells assessed as growth inhibition at 10 uM measured after 48 hrs by NCI protocol based SRB assay relative to control). Settings: read-out: GI.
Type: functional

SMILES | inhibition of growth at 10 µM
N#Cc1c(-c2ccccc2)nc2c(c(-c3ccccc3)nn2-c2ccccc2)c1-c1ccc(O)cc1 | 49%

Each compound was assayed on Malme-3M (assay: Antiproliferative activity against human Malme-3M cells assessed as growth inhibition at 10 uM measured after 48 hrs by NCI protocol based SRB assay relative to control). Settings: read-out: GI.
Type: functional

SMILES | inhibition of growth at 10 µM
N#Cc1c(-c2ccccc2)nc2c(c(-c3ccccc3)nn2-c2ccccc2)c1-c1ccc(O)cc1 | 57%

What follows are compounds tested on LOX IMVI (assay: Antiproliferative activity against human LOX IMVI cells assessed as growth inhibition at 10 uM measured after 48 hrs by NCI protocol based SRB assay relative to control). Settings: read-out: GI.
Type: functional

SMILES | inhibition of growth at 10 µM
N#Cc1c(-c2ccccc2)nc2c(c(-c3ccccc3)nn2-c2ccccc2)c1-c1ccc(O)cc1 | 148%

Each compound was assayed on SK-MEL-2 (assay: Antiproliferative activity against human SK-MEL-2 cells assessed as growth inhibition at 10 uM measured after 48 hrs by NCI protocol based SRB assay relative to control). Settings: read-out: GI.
Type: functional

SMILES | inhibition of growth at 10 µM
N#Cc1c(-c2ccccc2)nc2c(c(-c3ccccc3)nn2-c2ccccc2)c1-c1ccc(O)cc1 | 28%

These compounds were tested on IGROV-1 (assay: Antiproliferative activity against human IGROV-1 cells assessed as growth inhibition at 10 uM measured after 48 hrs by NCI protocol based SRB assay relative to control). Settings: read-out: GI.
Type: functional

SMILES | inhibition of growth at 10 µM
N#Cc1c(-c2ccccc2)nc2c(c(-c3ccccc3)nn2-c2ccccc2)c1-c1ccc(O)cc1 | 29%

These compounds were tested on OVCAR-3 (assay: Antiproliferative activity against human OVCAR-3 cells assessed as growth inhibition at 10 uM measured after 48 hrs by NCI protocol based SRB assay relative to control). Settings: read-out: GI.
Type: functional

SMILES | inhibition of growth at 10 µM
N#Cc1c(-c2ccccc2)nc2c(c(-c3ccccc3)nn2-c2ccccc2)c1-c1ccc(O)cc1 | 46%

These compounds were tested on OVCAR-4 (assay: Antiproliferative activity against human OVCAR-4 cells assessed as growth inhibition at 10 uM measured after 48 hrs by NCI protocol based SRB assay relative to control). Settings: read-out: GI.
Type: functional

SMILES | inhibition of growth at 10 µM
N#Cc1c(-c2ccccc2)nc2c(c(-c3ccccc3)nn2-c2ccccc2)c1-c1ccc(O)cc1 | 28%

What follows are compounds tested on OVCAR-5 (assay: Antiproliferative activity against human OVCAR-5 cells assessed as growth inhibition at 10 uM measured after 48 hrs by NCI protocol based SRB assay relative to control). Settings: read-out: GI.
Type: functional

SMILES | inhibition of growth at 10 µM
N#Cc1c(-c2ccccc2)nc2c(c(-c3ccccc3)nn2-c2ccccc2)c1-c1ccc(O)cc1 | 19%

What follows are compounds tested on SK-OV-3 (assay: Antiproliferative activity against human SK-OV-3 cells assessed as growth inhibition at 10 uM measured after 48 hrs by NCI protocol based SRB assay relative to control). Settings: read-out: GI.
Type: functional

SMILES | inhibition of growth at 10 µM
N#Cc1c(-c2ccccc2)nc2c(c(-c3ccccc3)nn2-c2ccccc2)c1-c1ccc(O)cc1 | 29%

The compounds below were run on SN12C (assay: Antiproliferative activity against human SN12C cells assessed as growth inhibition at 10 uM measured after 48 hrs by NCI protocol based SRB assay relative to control). Settings: read-out: GI.
Type: functional

SMILES | inhibition of growth at 10 µM
N#Cc1c(-c2ccccc2)nc2c(c(-c3ccccc3)nn2-c2ccccc2)c1-c1ccc(O)cc1 | 39%

Each compound was assayed on ACHN (assay: Antiproliferative activity against human ACHN cells assessed as growth inhibition at 10 uM measured after 48 hrs by NCI protocol based SRB assay relative to control). Settings: read-out: GI.
Type: functional

SMILES | inhibition of growth at 10 µM
N#Cc1c(-c2ccccc2)nc2c(c(-c3ccccc3)nn2-c2ccccc2)c1-c1ccc(O)cc1 | 58%

These compounds were tested on RXF 393 (assay: Antiproliferative activity against human RXF 393 cells assessed as growth inhibition at 10 uM measured after 48 hrs by NCI protocol based SRB assay relative to control). Settings: read-out: GI.
Type: functional

SMILES | inhibition of growth at 10 µM
N#Cc1c(-c2ccccc2)nc2c(c(-c3ccccc3)nn2-c2ccccc2)c1-c1ccc(O)cc1 | 117%

What follows are compounds tested on TK-10 (assay: Antiproliferative activity against human TK-10 cells assessed as growth inhibition at 10 uM measured after 48 hrs by NCI protocol based SRB assay relative to control). Settings: read-out: GI.
Type: functional

SMILES | inhibition of growth at 10 µM
N#Cc1c(-c2ccccc2)nc2c(c(-c3ccccc3)nn2-c2ccccc2)c1-c1ccc(O)cc1 | 79%

The compounds below were run on BT-549 (assay: Antiproliferative activity against human BT-549 cells assessed as growth inhibition at 10 uM measured after 48 hrs by NCI protocol based SRB assay relative to control). Settings: read-out: GI.
Type: functional

SMILES | inhibition of growth at 10 µM
N#Cc1c(-c2ccccc2)nc2c(c(-c3ccccc3)nn2-c2ccccc2)c1-c1ccc(O)cc1 | 41%

Each compound was assayed on MDA-MB-468 (assay: Antiproliferative activity against human MDA-MB-468 cells assessed as growth inhibition at 10 uM measured after 48 hrs by NCI protocol based SRB assay relative to control). Settings: read-out: GI.
Type: functional

SMILES | inhibition of growth at 10 µM
N#Cc1c(-c2ccccc2)nc2c(c(-c3ccccc3)nn2-c2ccccc2)c1-c1ccc(O)cc1 | 62%

The compounds below were run on NCI-H322M (assay: Antiproliferative activity against human NCI-H322M cells assessed as growth inhibition measured after 48 hrs by NCI protocol based SRB assay). Settings: not given.
Type: functional

SMILES | GI50
N#Cc1c(-c2ccccc2)nc2c(c(-c3ccccc3)nn2-c2ccccc2)c1-c1ccc(O)cc1 | 1.57 µM

Same assay, conditions: read-out: LC50 (the source's name)

SMILES | CC50
N#Cc1c(-c2ccccc2)nc2c(c(-c3ccccc3)nn2-c2ccccc2)c1-c1ccc(O)cc1 | 5.56 µM

Each compound was assayed on HT-29 (assay: Antiproliferative activity against human HT-29 cells assessed as growth inhibition measured after 48 hrs by NCI protocol based SRB assay). Settings: not given.
Type: functional

SMILES | GI50
N#Cc1c(-c2ccccc2)nc2c(c(-c3ccccc3)nn2-c2ccccc2)c1-c1ccc(O)cc1 | 2.51 µM

Same assay, conditions: read-out: LC50 (the source's name)

SMILES | CC50
N#Cc1c(-c2ccccc2)nc2c(c(-c3ccccc3)nn2-c2ccccc2)c1-c1ccc(O)cc1 | 54.7 µM

What follows are compounds tested on SF-539 (assay: Antiproliferative activity against human SF-539 cells assessed as growth inhibition measured after 48 hrs by NCI protocol based SRB assay). Settings: not given.
Type: functional

SMILES | GI50
N#Cc1c(-c2ccccc2)nc2c(c(-c3ccccc3)nn2-c2ccccc2)c1-c1ccc(O)cc1 | 1.25 µM

Same assay, conditions: read-out: LC50 (the source's name)

SMILES | CC50
N#Cc1c(-c2ccccc2)nc2c(c(-c3ccccc3)nn2-c2ccccc2)c1-c1ccc(O)cc1 | 6.1 µM

What follows are compounds tested on OVCAR-5 (assay: Antiproliferative activity against human OVCAR-5 cells assessed as growth inhibition measured after 48 hrs by NCI protocol based SRB assay). Settings: not given.
Type: functional

SMILES | GI50
N#Cc1c(-c2ccccc2)nc2c(c(-c3ccccc3)nn2-c2ccccc2)c1-c1ccc(O)cc1 | 1.75 µM

Same assay, conditions: read-out: LC50 (the source's name)

SMILES | CC50
N#Cc1c(-c2ccccc2)nc2c(c(-c3ccccc3)nn2-c2ccccc2)c1-c1ccc(O)cc1 | 6.66 µM

Each compound was assayed on ACHN (assay: Antiproliferative activity against human ACHN cells assessed as growth inhibition measured after 48 hrs by NCI protocol based SRB assay). Settings: not given.
Type: functional

SMILES | GI50
N#Cc1c(-c2ccccc2)nc2c(c(-c3ccccc3)nn2-c2ccccc2)c1-c1ccc(O)cc1 | 2.24 µM

Same assay, conditions: read-out: LC50 (the source's name)

SMILES | CC50
N#Cc1c(-c2ccccc2)nc2c(c(-c3ccccc3)nn2-c2ccccc2)c1-c1ccc(O)cc1 | 20.5 µM

Each compound was assayed on CCRF-CEM (assay: Antiproliferative activity against human CEM cells assessed as reduction in cell viability incubated for 72 hrs by resazurin dye based assay). Settings: not given.
Type: functional

SMILES | IC50
N#Cc1c(-c2ccccc2)nc2c(c(-c3ccccc3)nn2-c2ccccc2)c1-c1ccc(O)cc1 | 33.4 µM

What follows are compounds tested on HL-60(TB) (assay: Cytostatic activity in human HL-60(TB) cells assessed as tumor growth inhibition measured after 48 hrs by NCI protocol based SRB assay). Settings: not given.
Type: functional

SMILES | TGI
N#Cc1c(-c2ccccc2)nc2c(c(-c3ccccc3)nn2-c2ccccc2)c1-c1ccc(O)cc1 | 23.7 µM

The compounds below were run on A498 (assay: Cytostatic activity in human A498 cells assessed as tumor growth inhibition measured after 48 hrs by NCI protocol based SRB assay). Settings: not given.
Type: functional

SMILES | TGI
N#Cc1c(-c2ccccc2)nc2c(c(-c3ccccc3)nn2-c2ccccc2)c1-c1ccc(O)cc1 | 3.07 µM

The compounds below were run on DU-145 (assay: Cytostatic activity in human DU-145 cells assessed as tumor growth inhibition measured after 48 hrs by NCI protocol based SRB assay). Settings: not given.
Type: functional

SMILES | TGI
N#Cc1c(-c2ccccc2)nc2c(c(-c3ccccc3)nn2-c2ccccc2)c1-c1ccc(O)cc1 | 8.53 µM

— ChEMBL document CHEMBL5131391, “One-pot three-component synthesis of novel pyrazolo[3,4-b]pyridines as potent antileukemic agents” (Eur J Med Chem, 2022)
